The source of these data is publication PMC2216936 (The Journal of General Physiology, 1995).

For assay [1], the system named is voltage-gated sodium channel (GH3 cells; isoform not stated). Put plainly: whole-cell voltage clamp, block of peak INa. It is filed as cell-based.
For assay [2], the target named is voltage-gated sodium channel (sheep brain synaptoneurosomes; isoform not stated). In words: inhibition of [3H]-BTX-B radioligand binding at […] C. The arrangement: species or system Ovis aries.

pIC50: −log10 of the molar value.

With `CCCCN(CCCC)CCNC(=O)c1ccc(N=[N+]=[N-])cc1` [DNB-AB, N-(2-di-N-butyl-aminoethyl)-4-azidobenzamide], the pIC50 in assay [1] is 4.57; in assay [2] it was 5.48.

A word on the pIC50: it is the negative decadic logarithm of the IC50, by convention in mol/L. Higher therefore signals a small IC50.
